{"source": "patent US9469668B2", "about": "“Magnetic substance” (IHI CORPORATION, priority 2013, dated 2016)", "key": {"[1]": {"experiment": "Particle diameter of single crystal by transmission electron microscope", "type": "physicochemical", "details": "single crystal of the salen complex having the highest ferromagnetic property; TEM, 140 samples", "method": "A used device, conditions, and so on are as follows. Device: transmission electron microscope (H-7100FA manufactured by Hitachi) Conditions: acceleration voltage 100 kV Sample adjustment: dispersion method (after the salen complex was ground with a mortar, pure water was added to the ground salen complex, which was then dispersed in a grid by TEM) Grain size distribution measurement software: Image-Pro plus (Media cybermetrics, MD, U.S.A.) Measured target: traced images of the iron-salen complex in TEM photographs Number of samples: 140"}, "[2]": {"experiment": "Saturation magnetization measurement (magnetic property evaluation device MPMS7)", "type": "physicochemical", "description": "The measurement was conducted based on a magnetic property evaluation device MPMS7 manufactured by Kantum."}}, "data": [{"smiles": "Oc1ccccc1C=NCCN=Cc1ccccc1O.[Fe+2]", "note": "[iron-salen complex, N,N′-bis(salicylidene)ethylenediamine iron(II)]", "values": [{"measurement": "average particle diameter", "setting": "[1]", "result": 450, "unit": "nm"}, {"measurement": "saturation magnetization", "setting": "[2]; crystals having the highest magnetic property among 5-6 iron-salen complex preparations", "result": 1.25, "unit": "emu/g"}, {"measurement": "saturation magnetization", "setting": "[2]; crystals having the lowest magnetic property among those complexes", "result": 0.02, "unit": "emu/g"}]}]}
